Columns and labels:
[1] = test system: Chilo suppressalis; assay: Example B1: Chilo suppressalis (striped rice stemborer), artificial diet, L2 larvae; format: in vivo; conditions: 144 h, application rate of 200 ppm, 6 days after infestation, read-out: control in at least one of the three categories (mortality, anti-feedant effect, or growth inhibition)
How it was run: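 L2 larvae (6-8 per well) were placed on dried artificial diet that had been dosed with aqueous dilutions of 10,000 ppm DMSO stock solutions. After 6 days, control was credited if mortality, antifeedant effect or growth inhibition was higher than in untreated samples.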

[2] = test system: Diabrotica balteata; assay: Example B2: Diabrotica balteata (corn root worm), maize sprouts, L2 larvae; format: in vivo; conditions: 96 h, application rate of 200 ppm, 4 days after infestation, read-out: control in at least one of the two categories (mortality or growth inhibition)
How it was run: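 Maize sprouts on agar sprayed with aqueous test solutions made from 10,000 ppm DMSO stocks, dried, then infested with 6 to 10 L2 larvae per well. Mortality and growth inhibition assessed versus untreated samples 4 days after infestation; application rate 200 ppm.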

[3] = test system: Euschistus heros; assay: Example B3: Euschistus heros (neotropical brown stink bug), soybean leaves, N2 nymphs; format: in vivo; conditions: 120 h, application rate of 200 ppm, 5 days after infestation, read-out: control in at least one of the two categories (mortality or growth inhibition)
Description: Example B3: Euschistus heros (Neotropical Brown Stink Bug)
Soybean leaves on agar in 24-well microtiter plates were sprayed with aqueous test solutions prepared from 10,000 ppm DMSO stock solutions. After drying the leaves were infested with N2 nymphs. The samples were assessed for mortality and growth inhibition in comparison to untreated samples 5 days after infestation.
The following compounds gave an effect of at least 80% control in at least one of the two categories (mortality or growth inhibition) at an application rate of 200 ppm: […]

[4] = test system: Myzus persicae; assay: Example B7: Myzus persicae (green peach aphid), intrinsic activity, sucrose solution 24-well; format: in vivo; conditions: 120 h, application rate of 12.5 ppm, 5 days after infestation, read-out: control (mortality)
How it was run: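 Compounds from 10,000 ppm DMSO stocks were mixed into sucrose solution in wells at a rate of 12.5 ppm. Aphid-infested pea seedlings were placed on a Parafilm membrane over the solution, so aphids fed through it. Mortality was scored 5 days after infestation.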

[5] = test system: Plutella xylostella; assay: Example B8: Plutella xylostella (diamond back moth), artificial diet 24-well, eggs; format: in vivo; conditions: 192 h, application rate of 200 ppm, 8 days after infestation, read-out: effect in at least one of the two categories (mortality or growth inhibition)
How it was run: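 Plutella eggs placed onto dried, compound-treated artificial diet, the aqueous test solutions diluted from 10,000 ppm DMSO stocks. Eight days post-infestation, larvae rated for mortality and growth inhibition relative to untreated controls.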

[6] = test system: Spodoptera littoralis; assay: Example B9: Spodoptera littoralis (Egyptian cotton leaf worm), cotton leaf discs, L1 larvae; format: in vivo; conditions: foliar, 72 h, application rate of 200 ppm, 3 days after infestation, read-out: control in at least one of the three categories (mortality, anti-feedant effect, or growth inhibition)
How it was run: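 Five L1 larvae placed on sprayed, dried cotton leaf discs; spray solutions aqueous, from 10,000 ppm DMSO stocks. Control given when mortality, anti-feedant effect or growth inhibition exceeds untreated samples at 3 days.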

[7] = test system: Myzus persicae; assay: Example B5: Myzus persicae (green peach aphid), feeding/contact activity; format: in vivo; conditions: 144 h, application rate of 200 ppm, 6 days after infestation
Description: Example B5: Myzus persicae (Green Peach Aphid):Feeding/Contact Activity
Sunflower leaf discs were placed onto agar in a 24-well microtiter plate and sprayed with aqueous test solutions prepared from 10,000 ppm DMSO stock solutions. After drying, the leaf discs were infested with an aphid population of mixed ages. The samples were assessed for mortality 6 days after infestation.

[8] = test system: Frankliniella occidentalis; assay: Example B4: Frankliniella occidentalis (western flower thrips), feeding/contact activity; format: in vivo; conditions: 168 h, application rate of 200 ppm, 7 days after infestation
Description: Example B4: Frankliniella occidentalis (Western Flower Thrips):Feeding/Contact Activity
Sunflower leaf discs were placed on agar in 24-well microtiter plates and sprayed with aqueous test solutions prepared from 10,000 DMSO stock solutions. After drying the leaf discs were infested with a Frankliniella population of mixed ages. The samples were assessed for mortality 7 days after infestation.

Row | SMILES | melting point [°C] | percent control (mortality, anti-feedant effect or growth inhibition) at 200 ppm [1] [%] | percent control (mortality or growth inhibition) at 200 ppm [3] [%] | mortality at 12.5 ppm [4] [%] | percent effect (mortality or growth inhibition) at 200 ppm [5] [%] | percent control (mortality, anti-feedant effect or growth inhibition) at 200 ppm [6] [%] | also measured
1 | C[C@@H](c1ncnn1-c1ncccn1)N1CCN(c2cc(OC(F)(F)C(F)F)c(Cl)cc2Cl)C1=O | 207 to 209 | – | – | – | – | – | –
2 | C[C@@H]1CN(C(=O)c2ccc(-n3ncnc3[C@H](C)NC(=O)Nc3cc(C(F)(F)F)c(Cl)cc3Cl)nc2)C[C@H](C)O1 | 138 to 140 | – | – | – | – | – | –
3 | CC(NC(=O)Nc1cc(C(F)(F)F)cc(C(F)(F)F)c1)c1ncnn1-c1ncccn1 (stereo not shown) | 124 to 127 | – | – | – | – | – | –
4 | C[C@H](NC(=S)Nc1cc(Cl)cc(C(F)(F)F)c1)c1ncnn1-c1ncccn1 | 106 to 108 | – | – | – | – | – | –
5 | C[C@H](NC(=O)Nc1cnc(C(F)(F)F)cc1I)c1ncnn1-c1ncccn1 | 183 to 186 | – | – | – | – | – | –
6 | C[C@H](NC(=O)Nc1ccc(Br)c(Br)c1)c1nccnc1-c1ncccn1 | 220 to 222 | – | – | – | – | – | –
7 | C[C@H](NC(=O)Nc1cc(Cl)c(Cl)cc1I)c1ncnn1-c1ncccn1 (stereo in doubt) | 236 to 249 | – | – | – | – | – | –
8 | CC(NC(=O)Nc1ccc(C(F)(F)F)cc1C(F)(F)F)c1ncnn1-c1ncccn1 (stereo not shown) [Example P1, 1-[2,4-bis(trifluoromethyl)phenyl]-3-[1-(2-pyrimidin-2-yl-1,2,4-triazol-3-yl)ethyl]urea] | – | ≥ 80 | ≥ 80 | ≥ 80 | ≥ 80 | ≥ 80 | percent control (mortality or growth inhibition) at 200 ppm [2]: ≥ 80%
9 | C[C@H](NC(=O)Nc1cnc(Br)cc1Br)c1ncnn1-c1ncccn1 [Example P55, 1-(4,6-dibromo-3-pyridyl)-3-[(1S)-1-(2-pyrimidin-2-yl-1,2,4-triazol-3-yl)ethyl]urea] | – | ≥ 80 | ≥ 80 | ≥ 80 | ≥ 80 | ≥ 80 | –
10 | C[C@H](NC(=O)Nc1ccc(F)cc1C#N)c1ncnn1-c1ncccn1 [Example P62, 1-(2-cyano-4-fluoro-phenyl)-3-[(1S)-1-(2-pyrimidin-2-yl-1,2,4-triazol-3-yl)ethyl]urea] | – | – | ≥ 80 | – | – | – | mortality at 200 ppm [7]: ≥ 80%
11 | Cc1cccc(Cl)c1NC(=O)N[C@@H](C)c1ncnn1-c1ncccn1 [Example P71, 1-(2-chloro-6-methyl-phenyl)-3-[(1S)-1-(2-pyrimidin-2-yl-1,2,4-triazol-3-yl)ethyl]urea] | – | – | – | – | – | – | mortality at 200 ppm [8]: ≥ 80%
12 | C[C@H](NC(=O)Nc1ccc(C(F)(F)F)cc1I)c1ncnn1-c1ncccn1 [Example P72, 1-[2-iodo-4-(trifluoromethyl)phenyl]-3-[(1S)-1-(2-pyrimidin-2-yl-1,2,4-triazol-3-yl)ethyl]urea] | – | ≥ 80 | ≥ 80 | ≥ 80 | ≥ 80 | ≥ 80 | –
13 | C[C@H](NC(=O)Nc1cc(OCc2ccc(Cl)cn2)c(Cl)cc1Cl)c1ncnn1-c1ncccn1 [Example P142, 1-[2,4-dichloro-5-[(5-chloro-2-pyridyl)methoxy]phenyl]-3-[(1S)-1-(2-pyrimidin-2-yl-1,2,4-triazol-3-yl)ethyl]urea] | – | – | – | – | – | – | mortality at 200 ppm [8]: ≥ 80%
14 | C[C@H](NC(=O)Nc1cc(C#N)c(Cl)cc1F)c1ncnn1-c1ncccn1 [Example P182, 1-(4-chloro-5-cyano-2-fluoro-phenyl)-3-[(1S)-1-(2-pyrimidin-2-yl-1,2,4-triazol-3-yl)ethyl]urea] | – | ≥ 80 | ≥ 80 | ≥ 80 | ≥ 80 | ≥ 80 | –
15 | COC(=O)c1cc(Cl)c(Cl)cc1NC(=O)N[C@@H](C)c1ncnn1-c1ncccn1 [Example P199, methyl 4,5-dichloro-2-[[(1S)-1-(2-pyrimidin-2-yl-1,2,4-triazol-3-yl)ethyl]carbamoylamino]benzoate] | – | – | – | – | – | – | mortality at 200 ppm [8]: ≥ 80%
16 | Cc1cc2c(cc1NC(=O)N[C@@H](C)c1ncnn1-c1ncccn1)OCC(=O)N2 [Example P208, 1-(6-methyl-3-oxo-4H-1,4-benzoxazin-7-yl)-3-[(1S)-1-(2-pyrimidin-2-yl-1,2,4-triazol-3-yl)ethyl]urea] | – | – | – | – | – | – | mortality at 200 ppm [8]: ≥ 80%
17 | C[C@H](NC(=O)Nc1cc(OC(F)(F)Cl)c(Cl)cc1F)c1ncnn1-c1ncccn1 [Example P219, 1-[4-chloro-5-[chloro(difluoro)methoxy]-2-fluoro-phenyl]-3-[(1S)-1-(2-pyrimidin-2-yl-1,2,4-triazol-3-yl)ethyl]urea] | – | ≥ 80 | – | ≥ 80 | ≥ 80 | ≥ 80 | percent control (mortality or growth inhibition) at 200 ppm [2]: ≥ 80%; mortality at 200 ppm [8]: ≥ 80%
18 | C[C@H](NC(=O)Nc1cc(C(F)(F)F)c(Cl)cc1Br)c1nccnc1-c1ccc(C#N)cn1 [Example P246, 1-[2-bromo-4-chloro-5-(trifluoromethyl)phenyl]-3-[(1S)-1-[3-(5-cyano-2-pyridyl)pyrazin-2-yl]ethyl]urea] | – | – | ≥ 80 | – | – | ≥ 80 | percent control (mortality or growth inhibition) at 200 ppm [2]: ≥ 80%
19 | C[C@H](NC(=O)Nc1cc(OC(F)(F)C(F)F)c(Cl)cc1Cl)c1ncnn1-c1ccc(=O)n(C)n1 [Example P269, 1-[2,4-dichloro-5-(1,1,2,2-tetrafluoroethoxy)phenyl]-3-[(1S)-1-[2-(1-methyl-6-oxo-pyridazin-3-yl)-1,2,4-triazol-3-yl]ethyl]urea] | – | – | ≥ 80 | ≥ 80 | – | ≥ 80 | percent control (mortality or growth inhibition) at 200 ppm [2]: ≥ 80%
20 | C[C@H](NC(=O)Nc1cnc(C(F)(F)F)cc1Br)c1ncnn1-c1ncccn1 [Example P280, 1-[4-bromo-6-(trifluoromethyl)-3-pyridyl]-3-[(1S)-1-(2-pyrimidin-2-yl-1,2,4-triazol-3-yl)ethyl]urea] | – | ≥ 80 | ≥ 80 | ≥ 80 | ≥ 80 | ≥ 80 | percent control (mortality or growth inhibition) at 200 ppm [2]: ≥ 80%; mortality at 200 ppm [8]: ≥ 80%
21 | Cc1cc(C(F)(F)F)ncc1NC(=O)N[C@@H](C)c1ncnn1-c1ncccn1 [Example P328, 1-[4-methyl-6-(trifluoromethyl)-3-pyridyl]-3-[(1S)-1-(2-pyrimidin-2-yl-1,2,4-triazol-3-yl)ethyl]urea] | – | ≥ 80 | ≥ 80 | ≥ 80 | – | – | mortality at 200 ppm [7]: ≥ 80%
22 | C[C@H](NC(=O)Nc1cc(F)c(Br)cc1OC(F)F)c1ncnn1-c1ncccn1 [Example P390, 1-[4-bromo-2-(difluoromethoxy)-5-fluoro-phenyl]-3-[(1S)-1-(2-pyrimidin-2-yl-1,2,4-triazol-3-yl)ethyl]urea] | – | ≥ 80 | ≥ 80 | ≥ 80 | ≥ 80 | ≥ 80 | percent control (mortality or growth inhibition) at 200 ppm [2]: ≥ 80%

— patent publication US20240108006A1, “PESTICIDALLY ACTIVE HETEROAROMATIC COMPOUNDS” (SYNGENTA CROP PROTECTION AG, priority 2021, published 2024)
